Reference: PMC5421877, “SOCS3 inhibits the pathological effects of IL-22 in non-melanoma skin tumor-derived keratinocytes” (Oncotarget, 2017)

Legend:
CAL27 cells = experiment: Scratch assay (migration), CAL27; type: cell-based; settings: CAL27; 40 μM peptide, PD98059 20 μM or S3I-201 10 μM; IL-22 50 ng/ml, 24 h
Procedure: (§1) Figure 6 IL-22-induced proliferation and migration of healthy and transformed keratinocytes is counteracted by KIR-ESS peptide (A) Healthy KC, CAL27 and CAL33 cultures were plated in 96-well plates in quadruplicate for each condition. After 1 day, cells were pre-treated or not with Ctrl1 or KIR-ESS peptides (40 μM), or S31-201 ([…]) and PD98059 ([…]) chemical inhibitors, and, then, stimulated or not with 50 ng/ml of IL-22. Data relative to 48-h treatment are shown and expressed as the values of fluorescence intensity obtained from untreated and IL-22-treated ± SD. Three independent experiments were performed. *p < 0.01. (B) Scratch assays were carried out on healthy or SCC-lines, pre-incubated with mitomycin C (5 mg/ml), pre-treated with Ctrl1 or KIR-ESS peptides (40 μM), or S31-201 ([…]) or PD98059 ([…]) chemical inhibitors, and, then, stimulated or not with IL-22 for 24 h. Microscopic images were taken immediately after and 24 h after wound induction on confluent cell layers. Initial scratches (0 h) are dashed blank. (C) Cell-free area was measured and indicated as residual wound. Data are reported as healed wound (gray area of bars) vs residual wound (white area of bars) which a value of 100% was given. *p < 0.01.
(§2) Cultured keratinocytes and SCC cell lines were grown at 100% confluence on type IV collagen (20 μg/ml), and then incubated with mitomycin C (5 mg/ml) (Sigma-Aldrich) for 1 h. Cell monolayers were scratched with the tip of a p-200 pipette to create uniform cell-free zones, and, then, pre-treated with appropriate concentrations of SOCS3 mimetic or control peptides, or with 10 μM STAT3 (S3I-201, Santa Cruz) and 20 μM Erk1/2 (PD98059, Calbiochem) inhibitors for 1 h, before treating by 50 ng/ml of IL-22. Microscopy pictures were taken with a digital camera at different time points following IL-22 treatment. The residual gap between migrating keratinocytes was measured with a computer-assisted image analysis system (Axiovision; Zeiss, Oberkochen, Germany), and expressed as percentage of the initial scratched area.

CAL33 cells = experiment: Scratch assay (migration), CAL33; type: cell-based; settings: 24 h
Procedure: as §1, §2

healthy keratinocytes [1] = experiment: CyQUANT proliferation assay, healthy keratinocytes; type: cell-based, human; settings: healthy KC; PD98059 20 μM or S3I-201 10 μM, 48 h
Procedure: (§3) Figure 6 IL-22-induced proliferation and migration of healthy and transformed keratinocytes is counteracted by KIR-ESS peptide (A) Healthy KC, CAL27 and CAL33 cultures were plated in 96-well plates in quadruplicate for each condition. After 1 day, cells were pre-treated or not with Ctrl1 or KIR-ESS peptides (40 μM), or S31-201 ([…]) and PD98059 ([…]) chemical inhibitors, and, then, stimulated or not with 50 ng/ml of IL-22. Data relative to 48-h treatment are shown and expressed as the values of fluorescence intensity obtained from untreated and IL-22-treated ± SD. Three independent experiments were performed. *p < 0.01. […] (C) Cell-free area was measured and indicated as residual wound. […]
(§4) SOCS1- and SOCS3 stably transfected keratinocytes or cultured keratinocytes previously transfected with SOCS3 or control siRNA were seeded in 96-well plates (1.5–2.0 × 10^4 cells/well), and, the day after, starved in medium without serum. At 60% confluence, cells were treated with 75 ng/ml of IL-22 for 3 days, stained with 0.5% crystal violet (Bio-Rad, Hercules, CA, USA), and then analyzed in an ELISA reader (model 3550 UV ELISA reader; Bio-Rad). […] After 1-h pre-incubation, cells were treated with IL-22 or left unstimulated, cultured for other 24, 48 and 72 h, and the number of viable cells determined by CyQUANT Cell Proliferation Assay, accordingly to manufacture's protocol. […]

healthy keratinocytes [2] = experiment: Scratch assay (migration), healthy keratinocytes; type: cell-based, human; settings: without IL-22, 40 μM peptide or PD98059 20 μM, 24 h
Procedure: as §3, with “0.01. (B) Scratch assays were carried out on healthy or SCC-lines, pre-incubated with mitomycin C (5 mg/ml), pre-treated with Ctrl1 or KIR-ESS peptides (40 μM), or S31-201 ([…]) or PD98059 ([…]) chemical inhibitors, and, then, stimulated or not with IL-22 for 24 h.” for “0.01.”
Cultured keratinocytes and SCC cell lines were grown at 100% confluence on type IV collagen (20 μg/ml), and then incubated with mitomycin C (5 mg/ml) (Sigma-Aldrich) for 1 h. […] The residual gap between migrating keratinocytes was measured with a computer-assisted image analysis system (Axiovision; Zeiss, Oberkochen, Germany), and expressed as percentage of the initial scratched area.

[3] = test system: SCC-cell lines (CAL27 and CAL33); experiment: CyQUANT proliferation assay, SCC-cell lines; type: cell-based; settings: PD98059 20 μM or S3I-201 10 μM, 48 h
Procedure: as §3, §4

COc1cccc(-c2cc(=O)c3ccccc3o2)c1N [PD98059]
wound closure, IL-22-treated (CAL27 cells): effect similar to those obtained with the chemical Erk1/2 and STAT3 inhibitors
wound closure / migration, resting cells (CAL33 cells; CAL33, without IL-22, 40 μM peptide or PD98059 20 μM): efficacious in inhibiting migration of CAL27 cells and healthy or CAL33 keratinocytes, respectively
wound closure, IL-22-treated (CAL33 cells; CAL33, 40 μM peptide, PD98059 20 μM or S3I-201 10 μM, IL-22 50 ng/ml): effect similar to those obtained with the chemical Erk1/2 and STAT3 inhibitors
proliferation (effect relative to KIR-ESS) (healthy keratinocytes [1]): KIR-ESS effect was similar to that observed in all healthy and transformed keratinocyte cultures
wound closure / migration, resting cells (healthy keratinocytes [2]): efficacious in inhibiting migration of CAL27 cells and healthy or CAL33 keratinocytes, respectively
proliferation (effect relative to KIR-ESS) [3]: KIR-ESS effect was similar to that observed in all healthy and transformed keratinocyte cultures
